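Results reflect a 48-hour exposure of cells in 96-well plates to compound at five concentrations. TGI: total growth inhibition.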
Tests used:
Assay in all cases: inhibition of tumour cell growth, NCI panel, 48 h
786-0 renal = system: 786-0 renal
A549 NSCLC = system: A549 NSCLC
ACHN renal = system: ACHN renal
BT-549 breast = system: BT-549 breast
CCRF-CEM leukemia = system: CCRF-CEM leukemia
COLO 205 colon = system: COLO 205 colon
DU-145 prostate = system: DU-145 prostate
EKVX NSCLC = system: EKVX NSCLC
HCC-2998 colon = system: HCC-2998 colon
HCT-116 colon = system: HCT-116 colon
HCT-15 colon = system: HCT-15 colon
HL-60(TB) leukemia = system: HL-60(TB) leukemia
HOP-62 NSCLC = system: HOP-62 NSCLC
HS 578T breast = system: HS 578T breast
HT29 colon = system: HT29 colon
IGROV1 ovarian = system: IGROV1 ovarian
K-562 leukemia = system: K-562 leukemia
KM12 colon = system: KM12 colon
MCF7 breast = system: MCF7 breast
MDA-MB-231 breast = system: MDA-MB-231 breast
MDA-MB-435 = system: MDA-MB-435
MDA-N = system: MDA-N
MOLT-4 leukemia = system: MOLT-4 leukemia
NCI-H226 lung = system: NCI-H226 lung
NCI-H23 lung = system: NCI-H23 lung
NCI-H460 lung = system: NCI-H460 lung
NCI-H522 lung = system: NCI-H522 lung
NCI/ADR-RES ovarian = system: NCI/ADR-RES ovarian
OVCAR-3 ovarian = system: OVCAR-3 ovarian
OVCAR-4 ovarian = system: OVCAR-4 ovarian
OVCAR-8 ovarian = system: OVCAR-8 ovarian
PC-3 prostate = system: PC-3 prostate
RPMI-8226 leukemia = system: RPMI-8226 leukemia
RXF 393 renal = system: RXF 393 renal
SF-268 CNS = system: SF-268 CNS
SF-295 CNS = system: SF-295 CNS
SF-539 CNS = system: SF-539 CNS
SK-MEL-28 melanoma = system: SK-MEL-28 melanoma
SK-MEL-5 melanoma = system: SK-MEL-5 melanoma
SK-OV-3 ovarian = system: SK-OV-3 ovarian
SN12C renal = system: SN12C renal
SNB-19 CNS = system: SNB-19 CNS
SNB-75 CNS = system: SNB-75 CNS
SR leukemia = system: SR leukemia
SW-620 colon = system: SW-620 colon
T-47D breast = system: T-47D breast
TK-10 renal = system: TK-10 renal
U251 CNS = system: U251 CNS
UACC-257 melanoma = system: UACC-257 melanoma
UACC-62 melanoma = system: UACC-62 melanoma
UO-31 renal = system: UO-31 renal
A498 renal = system: A498 renal
CAKI-1 renal = system: CAKI-1 renal
HOP-92 NSCLC = system: HOP-92 NSCLC
LOX IMVI melanoma = system: LOX IMVI melanoma
M14 melanoma = system: M14 melanoma
MALME-3M melanoma = system: MALME-3M melanoma
OVCAR-5 ovarian = system: OVCAR-5 ovarian
SK-MEL-2 melanoma = system: SK-MEL-2 melanoma

Q: How did the TGI (786-0 renal) turn out when `COc1ccc(C2CC(=O)Oc3ccccc3O2)cc1` (stereo not drawn) was run?
A: > 100 µM

Q: What about the TGI (A549 NSCLC) of the same compound?
A: > 100 µM

Q: And the TGI (ACHN renal)?
A: > 100 µM

Q: And the TGI (BT-549 breast)?
A: > 100 µM

Q: And the TGI (CCRF-CEM leukemia)?
A: > 100 µM

Q: What about the TGI (COLO 205 colon) of the same compound?
A: > 100 µM

Q: What about the TGI (DU-145 prostate) of the same compound?
A: > 100 µM

Q: What about the TGI (EKVX NSCLC) of the same compound?
A: > 100 µM

Q: What about the TGI (HCC-2998 colon) of the same compound?
A: > 100 µM

Q: What about the TGI (HCT-116 colon) of the same compound?
A: > 100 µM

Q: And the TGI (HCT-15 colon)?
A: > 100 µM

Q: And the TGI (HL-60(TB) leukemia)?
A: > 100 µM

Q: And the TGI (HOP-62 NSCLC)?
A: > 100 µM

Q: And the TGI (HS 578T breast)?
A: > 100 µM

Q: And the TGI (HT29 colon)?
A: > 100 µM

Q: What about the TGI (IGROV1 ovarian) of the same compound?
A: > 100 µM

Q: And the TGI (K-562 leukemia)?
A: > 100 µM

Q: And the TGI (KM12 colon)?
A: > 100 µM

Q: What about the TGI (MCF7 breast) of the same compound?
A: > 100 µM

Q: And the TGI (MDA-MB-231 breast)?
A: > 100 µM

Q: What about the TGI (MDA-MB-435) of the same compound?
A: > 100 µM

Q: What about the TGI (MDA-N) of the same compound?
A: > 100 µM

Q: What about the TGI (MOLT-4 leukemia) of the same compound?
A: > 100 µM

Q: What about the TGI (NCI-H226 lung) of the same compound?
A: > 100 µM

Q: What about the TGI (NCI-H23 lung) of the same compound?
A: > 100 µM

Q: And the TGI (NCI-H460 lung)?
A: > 100 µM

Q: What about the TGI (NCI-H522 lung) of the same compound?
A: 93.2 µM

Q: And the TGI (NCI/ADR-RES ovarian)?
A: > 100 µM

Q: What about the TGI (OVCAR-3 ovarian) of the same compound?
A: > 100 µM

Q: And the TGI (OVCAR-4 ovarian)?
A: > 100 µM

Q: What about the TGI (OVCAR-8 ovarian) of the same compound?
A: > 100 µM

Q: And the TGI (PC-3 prostate)?
A: > 100 µM

Q: What about the TGI (RPMI-8226 leukemia) of the same compound?
A: > 100 µM

Q: What about the TGI (RXF 393 renal) of the same compound?
A: > 100 µM

Q: What about the TGI (SF-268 CNS) of the same compound?
A: > 100 µM

Q: What about the TGI (SF-295 CNS) of the same compound?
A: > 100 µM

Q: What about the TGI (SF-539 CNS) of the same compound?
A: > 100 µM

Q: And the TGI (SK-MEL-28 melanoma)?
A: > 100 µM

Q: What about the TGI (SK-MEL-5 melanoma) of the same compound?
A: > 100 µM

Q: And the TGI (SK-OV-3 ovarian)?
A: > 100 µM

Q: And the TGI (SN12C renal)?
A: > 100 µM

Q: And the TGI (SNB-19 CNS)?
A: > 100 µM

Q: What about the TGI (SNB-75 CNS) of the same compound?
A: > 100 µM

Q: What about the TGI (SR leukemia) of the same compound?
A: > 100 µM

Q: And the TGI (SW-620 colon)?
A: > 100 µM

Q: What about the TGI (T-47D breast) of the same compound?
A: > 100 µM

Q: What about the TGI (TK-10 renal) of the same compound?
A: > 100 µM

Q: What about the TGI (U251 CNS) of the same compound?
A: > 100 µM

Q: What about the TGI (UACC-257 melanoma) of the same compound?
A: > 100 µM

Q: And the TGI (UACC-62 melanoma)?
A: > 100 µM

Q: And the TGI (UO-31 renal)?
A: > 100 µM

Q: What does the source list for `COc1ccc(OC)c(NC(=O)C(=O)Nn2c(=S)[nH]c3ccccc3c2=O)c1`?
A: TGI (786-0 renal): > 100 µM; TGI (A498 renal): > 100 µM; TGI (A549 NSCLC): > 100 µM; TGI (ACHN renal): > 100 µM; TGI (BT-549 breast): > 100 µM; TGI (CAKI-1 renal): > 100 µM; TGI (CCRF-CEM leukemia): > 100 µM; TGI (EKVX NSCLC): > 100 µM; TGI (HCC-2998 colon): > 100 µM; TGI (HCT-116 colon): > 100 µM; TGI (HCT-15 colon): > 100 µM; TGI (HL-60(TB) leukemia): > 100 µM; TGI (HOP-62 NSCLC): > 100 µM; TGI (HOP-92 NSCLC): > 100 µM; TGI (HS 578T breast): > 100 µM; TGI (HT29 colon): > 100 µM; TGI (IGROV1 ovarian): > 100 µM; TGI (K-562 leukemia): > 100 µM; TGI (KM12 colon): > 100 µM; TGI (LOX IMVI melanoma): > 100 µM; TGI (M14 melanoma): > 100 µM; TGI (MALME-3M melanoma): > 100 µM; TGI (MCF7 breast): > 100 µM; TGI (MDA-MB-231 breast): > 100 µM; TGI (MDA-MB-435): > 100 µM; TGI (MDA-N): > 100 µM; TGI (MOLT-4 leukemia): > 100 µM; TGI (NCI-H226 lung): > 100 µM; TGI (NCI-H23 lung): > 100 µM; TGI (NCI-H460 lung): > 100 µM; TGI (NCI-H522 lung): > 100 µM; TGI (NCI/ADR-RES ovarian): > 100 µM; TGI (OVCAR-3 ovarian): > 100 µM; TGI (OVCAR-4 ovarian): > 100 µM; TGI (OVCAR-5 ovarian): > 100 µM; TGI (OVCAR-8 ovarian): > 100 µM; TGI (PC-3 prostate): > 100 µM; TGI (RPMI-8226 leukemia): > 100 µM; TGI (RXF 393 renal): > 100 µM; TGI (SF-268 CNS): > 100 µM; TGI (SF-295 CNS): > 100 µM; TGI (SF-539 CNS): > 100 µM; TGI (SK-MEL-2 melanoma): > 100 µM; TGI (SK-MEL-28 melanoma): > 100 µM; TGI (SK-MEL-5 melanoma): > 100 µM; TGI (SK-OV-3 ovarian): > 100 µM; TGI (SN12C renal): > 100 µM; TGI (SNB-19 CNS): > 100 µM; TGI (SNB-75 CNS): > 100 µM; TGI (SR leukemia): > 100 µM; TGI (SW-620 colon): > 100 µM; TGI (T-47D breast): > 100 µM; TGI (TK-10 renal): > 100 µM; TGI (U251 CNS): > 100 µM; TGI (UACC-257 melanoma): > 100 µM; TGI (UACC-62 melanoma): > 100 µM; TGI (UO-31 renal): > 100 µM
